≈ marks a conversion by molar mass, not a printed value. One block for each compound: values may come before it.
Assays:
Assay type in all cases: cell-based
[1] = test system: methicillin-resistant Staphylococcus aureus (MRSA); test: MIC, two-fold agar dilution (CLSI), clinical isolates; conditions: for Measured MIC: Table 8, strain and unit inferred, MRSA
Excerpt: (§1) 1. The invention adopts the two-fold agar dilution method recommended by the operating procedure of antimicrobial susceptibility testing set by American Clinical and Laboratory Standards Institute (CLSI) to determine the Minimum Inhibitory Concentration (MIC) of the test samples against the tested strains.

[2] = test system: methicillin-sensitive Staphylococcus aureus (MSSA); test: as above
Excerpt: as §1

[3] = test system: Enterococcus faecium (EFM); test: as above
Excerpt: as §1

[4] = test system: methicillin-sensitive Staphylococcus epidermidis (MSSE); test: as above
Excerpt: as §1

[5] = test system: Escherichia coli (including ESBLs, non-ESBLs); test: as above
Excerpt: as §1

[6] = test system: Moraxella catarrhalis (BCA); test: as above
Excerpt: as §1

[7] = test system: Enterococcus faecalis (EFA); test: as above
Excerpt: as §1

[8] = test system: Streptococcus pneoumoniae (SPN); test: as above
Excerpt: as §1

[9] = test system: methicillin-resistant Staphylococcus epidermidis (MRSE); test: as above
Excerpt: as §1

[10] = test system: HCT-116 colorectal cancer cell line; test: CCK-8 proliferation inhibition; conditions: Homo sapiens, HCT-116, 72 h, concentration of 30 μM; 72 hours; CCK-8; read-out: HCT116 inhibition rate/%
Protocol: (1) HCT-116 colorectal cancer cell line, A549 lung cancer cell line, MGC-803 gastric cancer cell line, BEL-7402 liver cancer cell line, Jurkat T cell leukemia cell line, HL60 acute myeloid leukemia cell line, Hela cervical cancer cell line, MCF-7 breast cancer cell line, PC3 prostate cancer cell line and SAOS-2 osteosarcoma cell line were made into single cell suspension, 180 μL of which was inoculated into 96-well culture plate, which was cultured overnight in CO2 incubator (37° C., 5% CO2, 95% air).
(2) Each of the spiro three-membered ring, spiro five membered ring peptide deformylase inhibitors was dissolved in DMSO, and was further formulated into drug solution with required different final concentration using corresponding cell culture medium. The drug solutions were added to the above cells respectively (20 μL/well), with the control group added with 1‰ DMSO, and cultured in a CO2 incubator for 72 hours.
(3) After incubation for 72 hours, the culture solution was decanted, and 100 μL of 1:10 diluted CCK-8 solution was added.
Wherein, in step (1), the concentration of the single cell suspension was 2000 cells/well.
Wherein, in step (2), HCT-116 cells were cultured in McCoy's 5A medium (containing 10% newborn bovine serum, 1% double antibody); A549 and PC3 cells were cultured in F12 medium (containing 10% newborn bovine serum, 1% double antibody); MGC-803, BEL-7402, SAOS-2, Jurkat and HL60 cells were cultured in 1640 medium (containing 10% newborn bovine serum, 1% double antibody); and MCF-7 and Hela cells were cultured in DMEM high glucose medium (containing 10% newborn bovine serum, 1% double antibody).

Measured MIC [1]: 0.125 µg/mL
Compound: CCCC[C@H](CN(O)C=O)C(=O)N1CC2(CC2)C[C@H]1C(=O)Nc1ccc(F)c[n+]1[O-] [D]

Compound: CCCC[C@H](CN(O)C=O)C(=O)N1CCC[C@H]1C(=O)Nc1ccc(F)c[n+]1[O-] [A, reference compound]
Measured MIC [1]: 0.5 µg/mL

Compound: C[C@H]1COc2c(N3CCN(C)CC3)c(F)cc3c(=O)c(C(=O)O)cn1c23 [levofloxacin, reference compound]
Anti-bacterial activity (MIC) ([2]; strain MSSA 15-3): 16 µg/mL
Anti-bacterial activity (MIC) ([2]; strain MSSA 15-4): 0.5 µg/mL
Anti-bacterial activity (MIC) ([2]; strain MSSA 15-5): 64 µg/mL
Anti-bacterial activity (MIC) ([2]; strain MSSA 15-6): 16 µg/mL
Anti-bacterial activity (MIC) ([3]; strain EFM 15-1): > 128 µg/mL
Anti-bacterial activity (MIC) ([3]; strain EFM 15-2): > 128 µg/mL
Anti-bacterial activity (MIC) ([3]; strain EFM 15-3): > 128 µg/mL
Anti-bacterial activity (MIC) ([3]; strain EFM 15-4): > 128 µg/mL
Anti-bacterial activity (MIC) ([3]; strain EFM 15-5): > 128 µg/mL
Anti-bacterial activity (MIC) ([3]; strain EFM 15-6): 128 µg/mL
Anti-bacterial activity (MIC) ([1]; strain MRSA 15-1): 64 µg/mL
Anti-bacterial activity (MIC) ([1]; strain MRSA 15-2): > 128 µg/mL
Anti-bacterial activity (MIC) ([1]; strain MRSA 15-3): > 128 µg/mL
Anti-bacterial activity (MIC) ([1]; strain MRSA 15-4): > 128 µg/mL
Anti-bacterial activity (MIC) ([4]; strain MSSE 15-3): 0.5 µg/mL
Anti-bacterial activity (MIC) ([4]; strain MSSE 15-4): 0.5 µg/mL
Anti-bacterial activity (MIC) ([4]; strain MSSE 15-5): 0.5 µg/mL
Anti-bacterial activity (MIC) ([4]; strain MSSE 15-6): 0.25 µg/mL
Anti-bacterial activity (MIC) ([5]; strain ECO+ 15-2): 64 µg/mL
Anti-bacterial activity (MIC) ([5]; strain ECO+ 15-4): 1 µg/mL
Anti-bacterial activity (MIC) ([5]; strain ECO− 15-1): 0.03 µg/mL
Anti-bacterial activity (MIC) ([5]; strain ECO− 15-2): 128 µg/mL
Anti-bacterial activity (MIC) ([5]; strain ECO− 15-3): 0.06 µg/mL
Anti-bacterial activity (MIC) ([5]; strain ECO− 15-4): 0.06 µg/mL
Anti-bacterial activity (MIC) ([6]; strain BCA 14-1): 1 µg/mL
Anti-bacterial activity (MIC) ([6]; strain BCA 14-5): 4 µg/mL
Anti-bacterial activity (MIC) ([6]; strain BCA 14-6): 8 µg/mL
Anti-bacterial activity (MIC) ([6]; strain BCA 14-8): 1 µg/mL
Anti-bacterial activity (MIC) ([7]; strain EFA 15-1): > 128 µg/mL
Anti-bacterial activity (MIC) ([7]; strain EFA 15-2): > 128 µg/mL
Anti-bacterial activity (MIC) ([7]; strain EFA 15-4): 1 µg/mL
Anti-bacterial activity (MIC) ([7]; strain EFA 15-5): 1 µg/mL
Anti-bacterial activity (MIC) ([7]; strain EFA 15-6): > 128 µg/mL
Anti-bacterial activity (MIC) ([7]; strain EFA 15-9): 128 µg/mL
Anti-bacterial activity (MIC) ([8]; strain SPN 16-2): 1 µg/mL
Anti-bacterial activity (MIC) ([8]; strain SPN 16-4): 1 µg/mL
Anti-bacterial activity (MIC) ([9]; strain MRSE 15-1): 16 µg/mL
Anti-bacterial activity (MIC) ([9]; strain MRSE 15-2): 16 µg/mL
Anti-bacterial activity (MIC) ([9]; strain MRSE 15-3): 16 µg/mL
Anti-bacterial activity (MIC) ([9]; strain MRSE 15-7): 16 µg/mL

MIC (anti-bacterial activity) ([2]; strain MSSA 14-1): 0.5 µg/mL (≈ 1.23 µM)
MIC (anti-bacterial activity) ([2]; strain MSSA 14-2): 0.5 µg/mL (≈ 1.23 µM)
MIC (anti-bacterial activity) ([2]; strain MSSA 14-3): 0.5 µg/mL (≈ 1.23 µM)
MIC (anti-bacterial activity) ([2]; strain MSSA 14-4): 0.5 µg/mL (≈ 1.23 µM)
MIC (anti-bacterial activity) ([1]; strain MRSA 14-1): 0.5 µg/mL (≈ 1.23 µM)
MIC (anti-bacterial activity) ([1]; strain MRSA 14-2): 0.5 µg/mL (≈ 1.23 µM)
MIC (anti-bacterial activity) ([1]; strain MRSA 14-4): 0.5 µg/mL (≈ 1.23 µM)
MIC (anti-bacterial activity) ([1]; strain MRSA 14-5): 0.25 µg/mL (≈ 0.615 µM)
MIC (anti-bacterial activity) ([1]; strain printed MRSA 14-1 (second line of that name, r23, before MRSE 14-2)): 0.25 µg/mL (≈ 0.615 µM)
MIC (anti-bacterial activity) ([4]; strain MSSE 14-1): 0.125 µg/mL (≈ 0.308 µM)
MIC (anti-bacterial activity) ([4]; strain MSSE 14-2): 0.25 µg/mL (≈ 0.615 µM)
MIC (anti-bacterial activity) ([4]; strain MSSE 14-3): 0.25 µg/mL (≈ 0.615 µM)
MIC (anti-bacterial activity) ([4]; strain MSSE 14-4): 0.25 µg/mL (≈ 0.615 µM)
MIC (anti-bacterial activity) ([5]; strain ECO+ 14-1): 2 µg/mL (≈ 4.92 µM)
MIC (anti-bacterial activity) ([5]; strain ECO+ 14-2): 64 µg/mL (≈ 157 µM)
MIC (anti-bacterial activity) ([5]; strain ECO− 14-1): > 64 µg/mL
MIC (anti-bacterial activity) ([5]; strain ECO− 14-2): 64 µg/mL (≈ 157 µM)
MIC (anti-bacterial activity) ([7]; strain EFA 14-1): 2 µg/mL (≈ 4.92 µM)
MIC (anti-bacterial activity) ([7]; strain EFA 14-2): 2 µg/mL (≈ 4.92 µM)
MIC (anti-bacterial activity) ([7]; strain EFA 14-3): 2 µg/mL (≈ 4.92 µM)
MIC (anti-bacterial activity) ([7]; strain EFA 14-5): 2 µg/mL (≈ 4.92 µM)
MIC (anti-bacterial activity) ([9]; strain MRSE 14-2): 0.25 µg/mL (≈ 0.615 µM)
MIC (anti-bacterial activity) ([9]; strain MRSE 14-3): 0.125 µg/mL (≈ 0.308 µM)
MIC (anti-bacterial activity) ([9]; strain MRSE 14-4): 0.5 µg/mL (≈ 1.23 µM)
Compound: CCCC[C@H](CN(O)C=O)C(=O)N1CC2(CC2)C[C@H]1C(=O)Nc1ncccc1F [Example 5]
inhibition at 30 µM [10]: -15%
